The source of these data is US11065249B2, “Diacylglycerol acyl transferase 2 inhibitor” (Pfizer Inc., priority 2019, dated 2021).

Where a name gives a salt, the structure may show the parent alone. Where only a bound is given, the exact number is not on record here.

Data set [1] is described as follows: Determination of pKa (capillary electrophoresis, Analiza). The class given is physicochemical. The conditions noted are these: most basic pKa, mean.
Data set [2] in a line: Intrinsic clearance in human liver microsomes. The format is in vitro ADME. To be noted: 1 μM test compound, mean +/− STD Dev; for microsomal CLint at 1 μM: human, pooled human liver microsomes, pH 7.4, human liver microsome assay; for CLint (+/−STD Dev): human liver microsome assay. The procedure:
The incubations were conducted at 37° C. […] (Sorvall R C 3C Plus, Thermo Scientific, Waltham, Mass.).
On the technique in general: Liver microsomes are vesicles of endoplasmic reticulum, rich in cytochrome P450 enzymes.

The next data set deals with human DGAT2 (hDGAT2) (Homo sapiens (Human), UniProt Q96PD7). Nature of the data set: In vitro DGAT2 assay, determination of IC50 values for DGAT2 inhibitors. To be noted: inhibition of DGAT2, hDGAT2 membrane fractions; geometric mean. The format is biochemical. How it is done: Recombinant baculovirus for the FLAG-tagged hDGAT2 was generated in SF9 insect cells using Bac-to-Bac baculovirus expression system (Invitrogen) according to the manufacturer's protocol. For the expression of hDGAT2, SF9 cells (20 L) grown in Sf900II media were infected with hDGAT2 baculovirus at a multiplicity of infection of 1 in a Wave Bioreactor System 20/50P wave bag (GE Healthcare). After 40 hours of infection, the cells were then harvested by centrifugation at 5,000×g. The cell pellets were washed by resuspending in phosphate buffered saline (PBS) and collected by centrifugation at 5,000×g. The cell paste was flash frozen in liquid N2 and stored at −80° C. until needed. All operations below were at 4° C. unless otherwise noted. The cells were resuspended in lysis buffer (50 mM Tris-HCl, pH 8.0, 250 mM sucrose) including 1 mM ethylenediaminetetraacetic acid (EDTA) and the complete protease inhibitor cocktail (Roche Diagnostics) at a ratio of 3 mL buffer per 1 g cell paste. The cells were lysed by dounce homogenizer. The cell debris was removed by centrifugation at 1,000×g for 20 min, and the supernatant was centrifuged at 100,000×g for 1 hour. The resulting pellet was rinsed three times by filling ultracentrifuge tubes to the top with ice cold PBS before decanting. The washed pellet was resuspended with gentle stirring for 1 hour in lysis buffer containing 8 mM 3-[(3-cholamidopropyl)dimethylammonio]-1-propanesulfonate (CHAPS) at a ratio of 1 mL buffer per 1 g of original cell paste and centrifuged again at 100,000×g for 1 hour. The resulting supernatant was aliquotted, flash frozen in liquid N2, and stored at −80° C. until use.
To 1 μL of compounds dissolved in 100% DMSO and spotted at the bottom of each well, 5 μL of 0.04% bovine serum albumin (BSA) (fatty acid free, Sigma Aldrich) was added and the mixture was incubated at room temperature for 15 minutes. hDGAT2 membrane fractions were diluted in 100 mM Hepes-NaOH, pH 7.4, 20 mM MgCl2 containing 200 nM methyl arachidonyl fluorophosphonate (Cayman Chemical, dried from ethyl acetate stock solution under argon gas and dissolved in DMSO as 5 mM stock). 10 μL of this enzyme working solution was added to the plates and incubation continued for 2 hours at room temperature. DGAT2 reactions were initiated by the addition of 4 μL of substrates containing 30 μM [1-^14C]decanoyl-CoA (custom-synthesized by Perkin Elmer, 50 mCi/mmol) and 125 μM 1,2-didecanoyl-sn-glycerol (Avanti Polar Lipids) dissolved in 12.5% acetone. The reaction mixtures were incubated at room temperature for 40 min and the reactions were stopped by addition of 5 μL of 1% H3PO4. After the addition of 45 μL MicroScint-E (Perkin-Elmer), plates were sealed with Top Seal-A covers (Perkin-Elmer) and phase partitioning of substrates and products was achieved using a HT-91100 microplate orbital shaker (Big Bear Automation, Santa Clara, Calif.). Plates were centrifuged at 2,000×g for 1 minute in an Allegra 6R Centrifuge (Beckman Coulter) and then were sealed again with fresh covers before reading in a 1450 Microbeta Wallac Trilux Scintillation Counter (Perkin Elmer). DGAT2 activity was measured by quantifying the generated product [^14C]tridecanoylglycerol in the upper organic phase.
Inhibitors were tested at eleven different concentrations to generate IC50 values for each compound.

The subject of another data set is human hepatocytes. Description: High throughput determination of intrinsic clearance in human hepatocytes. The format is in vitro ADME. The conditions noted are these: high throughput human hepatocyte assay, 1 μM test compound; mean +/− Std Dev. How it is done:
(§1) The incubation was carried out at 37° C. […] The samples were centrifuged (Eppendorf, Hauppauge, N.Y.) at 3000 rpm for 5 min at 4° C.

Assay in data set [3]: as above
The format is in vitro ADME. The conditions noted are these: human, pooled cryopreserved human hepatocytes (suspension), high throughput human hepatocyte assay, 1 μM test compound; mean +/− Std Dev. How it is done: as §1

human DGAT2 (hDGAT2), sequence (Q96PD7 whole entry): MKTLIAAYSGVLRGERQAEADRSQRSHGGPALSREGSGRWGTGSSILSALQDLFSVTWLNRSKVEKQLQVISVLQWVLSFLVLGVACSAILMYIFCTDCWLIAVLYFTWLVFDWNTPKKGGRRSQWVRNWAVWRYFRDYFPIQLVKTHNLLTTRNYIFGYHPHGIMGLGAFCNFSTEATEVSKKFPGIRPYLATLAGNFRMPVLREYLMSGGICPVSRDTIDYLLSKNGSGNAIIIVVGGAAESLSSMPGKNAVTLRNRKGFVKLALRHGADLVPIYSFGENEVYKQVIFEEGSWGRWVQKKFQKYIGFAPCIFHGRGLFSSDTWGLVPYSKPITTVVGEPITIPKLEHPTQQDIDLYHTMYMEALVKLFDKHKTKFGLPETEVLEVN

As usually defined, the pKa is the pH at which an ionisable group is half protonated. Read a low pKa as a stronger acid or weaker base. As usually defined, the microsomal CLint is the capacity of the preparation to metabolise the compound, expressed as a volume cleared per time. For orientation: IC50 means the concentration at which inhibition is half-maximal. In turn, `CCOc1cccnc1Oc1cncc(-c2ncc(C(=O)N[C@H]3CCC(C(F)(F)F)NC3)cn2)c1` (single isomer, unassigned) [Example 8, rac-2-{5-[(3-ethoxypyridin-2-yl)oxy]pyridin-3-yl}-N-[(3R,6S)-6-(trifluoromethyl)piperidin-3-yl]pyrimidine-5-carboxamide or rac-2-{5-[(3-ethoxypyridin-2-yl)oxy]pyridin-3-yl}-N-[(3R,6R)-6-(trifluoromethyl)piperidin-3-yl]pyrimidine-5-carboxamide] came in with a pKa in data set [1] of 5.3. This compound also displayed a microsomal CLint at 1 μM in data set [2] of less than 14 µL/min/mg. The compound also had an IC50 on human DGAT2 (hDGAT2) of 0.65 µM.
The compound `CCOc1cccnc1Oc1cncc(-c2ncc(C(=O)N[C@H]3CNCCC3(F)F)cn2)c1` (single isomer, unassigned) [Example 16, N-[(3S)-4,4-difluoropiperidin-3-yl]-2-{5-[(3-ethoxypyridin-2-yl)oxy]pyridin-3-yl}pyrimidine-5-carboxamide, trifluoroacetate salt or N-[(3R)-4,4-difluoropiperidin-3-yl]-2-{5-[(3-ethoxypyridin-2-yl)oxy]pyridin-3-yl}pyrimidine-5-carboxamide, trifluoroacetate salt] came in with a pKa in data set [1] of 6.4. In data set [2] (trifluoroacetate salt), the “CLint (+/−STD Dev)” value turned out to be 17 µL/min/mg. Also, on human DGAT2 (hDGAT2), the IC50 was 0.48 µM.
With `CCOc1cc(F)cnc1Oc1cncc(-c2ncc(C(=O)N[C@@H]3CNCC[C@@H]3F)cn2)c1` [Example 1, 2-{5-[(3-Ethoxy-5-fluoropyridin-2-yl)oxy]pyridin-3-yl}-N-[(3R,4S)-4-fluoropiperidin-3-yl]pyrimidine-5-carboxamide, bis(trifluoroacetate) salt], in data set [1], the “Basic pKa” value was determined as 7.7. The “CLint (+/−STD Dev)” value in data set [2] is less than 7 µL/min/mg. Moreover, the 50% inhibitory concentration (IC50) against human DGAT2 (hDGAT2) was determined as 0.0058 µM. Moreover, the “CLint (+/−Std Dev)” value in the data set on human hepatocytes is on record as <2.7 +/− 0.72 μL/min/10^6 cells.
One may read the hepatocyte CLint as the capacity of the preparation to metabolise the compound, expressed as a volume cleared per time. Lower therefore signals slow turnover. `CCOc1cccnc1Oc1cncc(-c2ncc(C(=O)NC3CCC(C(F)(F)F)NC3)cn2)c1` (single isomer, unassigned; ent-1) [Example 10, 2-{5-[(3-ethoxypyridin-2-yl)oxy]pyridin-3-yl}-N-[6-(trifluoromethyl)piperidin-3-yl]pyrimidine-5-carboxamide, trifluoroacetate salt, ENT-1]: the “Basic pKa” value in data set [1] was determined as 4.7. In addition, the microsomal CLint at 1 μM in data set [2] was 270 µL/min/mg. The compound also showed an IC50 against human DGAT2 (hDGAT2) of 0.039 µM. For the same compound, the intrinsic clearance (hepatocyte CLint) at 1 μM in data set [3] is 27 µL/min/1e6 cells.
Turning to `CCOc1cc(F)cnc1Oc1cncc(-c2ncc(C(=O)N[C@H]3CCOC3)cn2)c1` [WO2018033832 Ex. 8], the “CLint (+/−STD Dev)” value in data set [2] was less than 9.6 µL/min/mg. In addition, the “CLint (+/−Std Dev)” value in the data set with human hepatocytes is recorded as 9.3 +/− 0.52 μL/min/10^6 cells.
Turning to `CCOc1cccnc1Oc1cncc(-c2ncc(C(=O)NC3CCC(C(F)(F)F)NC3)cn2)c1` (single isomer, unassigned; ent-2) [Example 11, 2-{5-[(3-ethoxypyridin-2-yl)oxy]pyridin-3-yl}-N-[6-(trifluoromethyl)piperidin-3-yl]pyrimidine-5-carboxamide, trifluoroacetate salt, ENT-2], in data set [1], the pKa worked out at 4.5. Besides, in data set [2], the “CLint (+/−STD Dev)” value was more than 290 µL/min/mg. The same compound came in with an IC50 at human DGAT2 (hDGAT2) of 0.0044 µM.
Turning to `CCOc1cccnc1Oc1cncc(-c2ncc(C(=O)N[C@@H]3CNCC[C@H]3C)cn2)c1` (racemic) [Example 24, rac-2-{5-[(3-ethoxypyridin-2-yl)oxy]pyridin-3-yl}-N-[(3R,4S)-4-methylpiperidin-3-yl]pyrimidine-5-carboxamide, trifluoroacetate salt], the microsomal CLint at 1 μM in data set [2] was less than 8 µL/min/mg. For the same compound, the IC50 against human DGAT2 (hDGAT2) worked out at 16 µM.
Turning to `CCOc1cccnc1Oc1cncc(-c2ncc(C(=O)N[C@@H]3CNCC(F)(F)C3)cn2)c1` (single isomer, unassigned) [Example 19, N-[(3S)-5,5-difluoropiperidin-3-yl]-2-{5-[(3-ethoxypyridin-2-yl)oxy]pyridin-3-yl}pyrimidine-5-carboxamide or N-[(3R)-5,5-difluoropiperidin-3-yl]-2-{5-[(3-ethoxypyridin-2-yl)oxy]pyridin-3-yl}pyrimidine-5-carboxamide], the “Basic pKa” value in data set [1] was determined as 5.2. Besides, the “CLint (+/−STD Dev)” value in data set [2] turned out to be 34 ± 1.9 µL/min/mg. Also, at human DGAT2 (hDGAT2), half-maximal inhibition (IC50) was put at 0.24 µM.
For the compound `CCOc1cccnc1Oc1cncc(-c2ncc(C(=O)N[C@H]3CNCC[C@@H]3F)cn2)c1` [Example 12, 2-{5-[(3-ethoxypyridin-2-yl)oxy]pyridin-3-yl}-N-[(3S,4S)-4-fluoropiperidin-3-yl]pyrimidine-5-carboxamide, trifluoroacetate salt], the pKa in data set [1] stood at 7.5. In addition, the microsomal CLint at 1 μM in data set [2] was less than 7 µL/min/mg. This compound displayed a hepatocyte CLint at 1 μM in data set [3] of less than 2.6 µL/min/1e6 cells.
`CCOc1cccnc1Oc1cncc(-c2ncc(C(=O)N[C@H]3CNCC[C@H]3C)cn2)c1` (racemic) [Example 20, rac-2-{5-[(3-ethoxypyridin-2-yl)oxy]pyridin-3-yl}-N-[(3R,4R)-4-methylpiperidin-3-yl]pyrimidine-5-carboxamide, trifluoroacetate salt] showed a microsomal CLint at 1 μM in data set [2] of 8.9 µL/min/mg. Half-maximal inhibition against human DGAT2 (hDGAT2) (IC50) required 2.1 µM.
For the compound `CCOc1cccnc1Oc1cncc(-c2ncc(C(=O)N[C@@H]3CNCC[C@@H]3F)cn2)c1` [Example 3, 2-{5-[(3-Ethoxypyridin-2-yl)oxy]pyridin-3-yl}-N-[(3R,4S)-4-fluoropiperidin-3-yl]pyrimidine-5-carboxamide, bis(trifluoroacetate) salt], in data set [1], the “Basic pKa” value was 8.1. In data set [2], the “CLint (+/−STD Dev)” value was less than 7 µL/min/mg. The “CLint (+/−Std Dev)” value in the data set on human hepatocytes is given as <1.9 +/− 0.35 μL/min/10^6 cells.
As for `CCOc1cc(F)cnc1Oc1cncc(-c2ncc(C(=O)N[C@@H]3CNC[C@@H](F)C3)cn2)c1` [Example 2, 2-{5-[(3-Ethoxy-5-fluoropyridin-2-yl)oxy]pyridin-3-yl}-N-[(3S,5S)-5-fluoropiperidin-3-yl]pyrimidine-5-carboxamide], the pKa in data set [1] came to 7.3. The compound also returned a microsomal CLint at 1 μM in data set [2] of less than 7 µL/min/mg. Besides, the hepatocyte CLint at 1 μM in data set [3] is 3.6 µL/min/1e6 cells.
As for `CCOc1cccnc1Oc1cncc(-c2ncc(C(=O)NC3CCS(=O)(=O)C3)cn2)c1` (stereo not shown) [WO2018033832 Ex. 3.3], the “CLint (+/−STD Dev)” value in data set [2] was less than 8 µL/min/mg. Besides, the “CLint (+/−Std Dev)” value with human hepatocytes was 5.1 +/− 0.69 μL/min/10^6 cells.
In the case of `CCOc1cccnc1Oc1cncc(-c2ncc(C(=O)NC3(C)CCS(=O)(=O)C3)cn2)c1` (stereo not shown) [WO2018033832 Ex. 3.1], the “CLint (+/−STD Dev)” value in data set [2] was found to be 30 µL/min/mg. Besides, in the data set with human hepatocytes, the “CLint (+/−Std Dev)” value is reported as 9.3 +/− 1.1 μL/min/10^6 cells.
Compound `CCOc1cccnc1Oc1cncc(-c2ncc(C(=O)N[C@H]3CC[C@H](C(F)(F)F)NC3)cn2)c1` (racemic) [Example 9, rac-2-{5-[(3-ethoxypyridin-2-yl)oxy]pyridin-3-yl}-N-[(3R,6S)-6-(trifluoromethyl)piperidin-3-yl]pyrimidine-5-carboxamide or rac-2-{5-[(3-ethoxypyridin-2-yl)oxy]pyridin-3-yl}-N-[(3R,6R)-6-(trifluoromethyl)piperidin-3-yl]pyrimidine-5-carboxamide] yielded a pKa in data set [1] of 4. In data set [2], the microsomal CLint at 1 μM was more than 290 µL/min/mg. In addition, at human DGAT2 (hDGAT2), the IC50 came out at 0.019 µM. Besides, the hepatocyte CLint at 1 μM in data set [3] worked out at 54 µL/min/1e6 cells.
